Reference: the NIST ThermoML archive (doi:10.1016/j.jct.2010.09.009)
Numbers after ± are expanded uncertainties.

Test: xn = mol fraction of the nth substance listed
Details: 101 kPa, Liquid, Vibrating tube method, x2 = 0

Molecule `O` [water] + CCC[N+](CCC)(CCC)CCC.[Br-] has a mass density (278.15 K) of 999.97 ± 0.05 kg/m3 and a mass density (283.15 K) of 999.7 ± 0.05 kg/m3.
